Results from US20070191393A1, “Macrocyclic anilinopyrimidines with substituted sulphoximine as selective inhibitors of cell cycle kinases” (priority 2006, published 2007).

Legend:
CDK2/CycE = biological target: T1, CDK2/CycE (Homo sapiens, UniProt P24941); experiment: CDK2/CycE kinase assay; type: biochemical; conditions: 0.5 μM ATP, 22° C., 10 min
T1 construct: GST; purchased ProQinase GmbH, Freiburg; host or cells: baculovirus-infected Sf9 insect cells
Description: Recombinant CDK2- and CycE-GST fusion proteins, purified from baculovirus-infected insect cells (Sf9), were purchased from ProQinase GmbH, Freiburg. The histone IIIS used as kinase substrate was purchased from Sigma. CDK2/CycE (50 ng/measurement point) was incubated in the presence of various concentrations of test substances (0 μM, and within the range 0.01-100 μM) in assay buffer [50 mM Tris/HCl pH 8.0, 10 mM MgCl2, 0.1 mM Na ortho-vanadate, 1.0 mM dithiothreitol, 0.5 μM ATP, 10 μg/measurement point histone IIIS, 0.2 μCi/measurement point ^33P-gamma ATP, 0.05% NP40, 1.25% dimethyl sulphoxide] at 22° C. for 10 min. The reaction was stopped by adding EDTA solution (250 mM, pH 8.0, 15 μl/measurement point).
15 μl of each reaction mixture were loaded onto P30 filter strips (from Wallac), and non-incorporated ^33P-ATP was removed by washing the filter strips three times in 0.5% strength phosphoric acid for 10 min each time.
After the filter strips had been dried at 70° C. for 1 hour, the filter strips were covered with scintillator strips (MeltiLex™ A, from Wallac) and baked at 90° C. for 1 hour. The amount of incorporated ^33P (substrate phosphorylation) was determined by scintillation measurement in a gamma radiation counter (Wallac).

Tie-2 = biological target: T2, Tie-2 (Homo sapiens, UniProt Q02763); experiment: Tie-2 kinase assay; type: biochemical; conditions: 10 μM ATP, 20 min
T2 construct: made in house; host or cells: Hi5 insect cells
T2 sequence (Q02763 23-1124, species assumed): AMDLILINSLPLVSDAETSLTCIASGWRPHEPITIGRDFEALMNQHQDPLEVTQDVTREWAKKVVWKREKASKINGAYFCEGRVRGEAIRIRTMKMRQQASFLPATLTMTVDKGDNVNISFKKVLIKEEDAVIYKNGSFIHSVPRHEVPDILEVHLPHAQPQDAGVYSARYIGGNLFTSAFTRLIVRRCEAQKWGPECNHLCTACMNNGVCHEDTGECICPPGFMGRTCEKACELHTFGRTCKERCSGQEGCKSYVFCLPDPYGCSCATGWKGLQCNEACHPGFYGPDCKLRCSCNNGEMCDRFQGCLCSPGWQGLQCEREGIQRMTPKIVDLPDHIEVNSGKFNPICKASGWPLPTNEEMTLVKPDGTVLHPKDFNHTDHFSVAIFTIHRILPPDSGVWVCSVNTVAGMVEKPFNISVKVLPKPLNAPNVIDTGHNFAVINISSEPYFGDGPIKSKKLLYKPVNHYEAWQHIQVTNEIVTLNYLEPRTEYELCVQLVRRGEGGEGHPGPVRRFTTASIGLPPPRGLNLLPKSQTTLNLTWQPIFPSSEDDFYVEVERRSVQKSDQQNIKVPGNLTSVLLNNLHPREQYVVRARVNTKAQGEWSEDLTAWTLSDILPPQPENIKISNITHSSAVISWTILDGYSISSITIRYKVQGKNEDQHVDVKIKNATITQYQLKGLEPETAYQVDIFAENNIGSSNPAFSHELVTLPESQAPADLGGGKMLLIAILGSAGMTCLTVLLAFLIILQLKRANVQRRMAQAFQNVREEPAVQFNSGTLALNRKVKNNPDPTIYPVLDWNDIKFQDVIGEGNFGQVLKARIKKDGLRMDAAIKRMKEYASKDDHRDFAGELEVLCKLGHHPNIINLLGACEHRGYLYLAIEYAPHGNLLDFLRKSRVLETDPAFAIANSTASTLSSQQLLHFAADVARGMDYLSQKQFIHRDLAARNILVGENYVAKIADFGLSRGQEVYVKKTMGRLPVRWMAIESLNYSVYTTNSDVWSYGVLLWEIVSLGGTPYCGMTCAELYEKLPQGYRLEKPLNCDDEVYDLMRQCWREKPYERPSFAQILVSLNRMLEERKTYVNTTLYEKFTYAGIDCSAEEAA
Description: Recombinant Tie-2 protein was expressed in Hi5 insect cells and then purified. The kinase substrate used was the biotinylated peptide having the amino acid sequence biotin-EPKDDAYPLYSDFG, which was purchased from Biosynthan. Tie-2 [concentration in the mixture 5 ng/μl] was preincubated in the presence of 100 μM ATP in assay buffer [50 mM HEPES pH 7.0, 0.5 mM MgCl2, 1.0 mM dithiothreitol, 0.01% NP40, 1 tablet/2.5 ml complete protease inhibitor (from Roche)] at 22° C. for 20 min. The enzyme reaction [0.5 ng/μl Tie-2 in the test mixture, test volume 5 μl] then took place in the presence of various concentrations of test substances (0 μM, and 10 measurement points within the range 0.001-20 μM in duplicate) in assay buffer with 10 μM ATP, 1.0 μM substrate peptide biotin-EPKDDAYPLYSDFG, 1.0% dimethyl sulphoxide for 20 min. The reaction was stopped by adding 5 μl of an EDTA/detection solution [50 mM HEPES pH 7.5, 89 mM EDTA, 0.28% BSA, 0.2 μM streptavidin-XLent (from CisBio), 2 nM PT66-Eu (from PerkinElmer)]. The fluorescence emission at 620 nm and 665 nm after excitation with light of the wavelength 350 nm was measured in a Rubystar HTRF instrument from BMG Labsystems.
The measured data (ratio of emission 665 divided by emission 620 multiplied by 10 000) were normalized to 0% inhibition (enzyme reaction without inhibitor) and 100% inhibition (all assay components apart from enzyme). The IC50 values were determined by means of a 4-parameter fit using the company's own software.

With `C[Si](C)(C)CCS(=O)(=O)N=S(C)(=O)c1ccc2cc1OCCCCNc1nc(ncc1Br)N2` (racemic) [Example 9, (RS)—S-[1^5-Bromo-4-oxa-2,9-diaza-1(2,4)-pyrimidina-3(1,3)-benzenacyclononaphan-3^4-yl]-S-methyl-N-[2-(trimethylsilyl)ethylsulphonyl]sulphoximide] the IC50 (CDK2/CycE) was greater than 1000 nM and the IC50 (Tie-2) was greater than 10000 nM.
In the case of `C[Si](C)(C)CCS(=O)(=O)N=S(C)(=O)c1ccc2cc1NCCCCNc1nc(ncc1Br)N2` (racemic) [Example 5, (RS)—S-[1^5-Bromo-2,4,9-triaza-1(2,4)-pyrimidina-3(1,3)-benzenacyclononaphan-3^4-yl]-S-methyl-N-[2-(trimethylsilyl)ethylsulphonyl]sulphoximide], the IC50 (CDK2/CycE) is reported as greater than 1000 nM.
Work on `CCOC(=O)N=S(C)(=O)c1ccc2cc1NCCCCNc1nc(ncc1Br)N2` (racemic) [Example 1, (RS)—S-[1^5-Bromo-2,4,9-triaza-1(2,4)-pyrimidina-3(1,3)-benzenacyclononaphan-3^4-yl]-N-(ethoxycarbonyl)-S-methylsulphoximide] yielded an IC50 (CDK2/CycE) of 323 nM and an IC50 (Tie-2) of 2920 nM.
`CCOC(=O)N=S(C)(=O)c1ccc2cc1NCCCCNc1nc(ncc1Br)N2` (single isomer, unassigned) [Example 2] gave an IC50 (CDK2/CycE) of 229 nM.
`CCOC(=O)N=S(C)(=O)c1ccc2cc1NCCCCNc1nc(ncc1I)N2` (racemic) [Example 4, (RS)—N-(Ethoxycarbonyl)-S-[1^5-iodo-2,4,9-triaza-1(2,4)-pyrimidina-3(1,3)-benzenacyclononaphan-3^4-yl]-S-methylsulphoximide] was tested, and the IC50 (CDK2/CycE) was 319 nM.
Work on `CCNC(=O)N=S(C)(=O)c1ccc2cc1NCCCCNc1nc(ncc1Br)N2` (racemic) [Example 6, (RS)—S-[1^5-Bromo-2,4,9-triaza-1(2,4)-pyrimidina-3(1,3)-benzenacyclononaphan-3^4-yl]-N-(ethylcarbamoyl)-S-methylsulphoximide] yielded an IC50 (CDK2/CycE) of 71 nM and an IC50 (Tie-2) of 1410 nM.
`CCOC(=O)N=S(C)(=O)c1ccc2cc1NCCCCNc1nc(ncc1Br)N2` (single isomer, unassigned) [Example 3] gave an IC50 (CDK2/CycE) of 990 nM.
Molecule `CCCS(=O)(=O)N=S(C)(=O)c1ccc2cc1NCCCCNc1nc(ncc1Br)N2` (racemic) [Example 7, (RS)—S-[1^5-Bromo-2,4,9-triaza-1(2,4)-pyrimidina-3(1,3)-benzenacyclononaphan-3^4-yl]-S-methyl-N-(propylsulphonyl)sulphoximide] has an IC50 (CDK2/CycE) greater than 1000 nM and an IC50 (Tie-2) of 1700 nM.
Work on `CCCOC(=O)N=S(C)(=O)c1ccc2cc1OCCCCNc1nc(ncc1Br)N2` (racemic) [Example 8, (RS)—S-[1^5-Bromo-4-oxa-2,9-diaza-1(2,4)-pyrimidina-3(1,3)-benzenacyclononaphan-3^4-yl]-S-methyl-N-(propoxycarbonyl)sulphoximide] yielded an IC50 (CDK2/CycE) greater than 1000 nM and an IC50 (Tie-2) of 17100 nM.
